Source: patent US7812014B2, “Bicyclic 6-alkylidene-penems as β-lactamase inhibitors” (priority 2002, dated 2010)
Where a name gives a salt, the structure may show the parent alone. Read-outs that look alike come from different tables or passages of the source.

Legend:
class C enzyme AmpC = class C enzyme AmpC (Enterobacter cloacae, UniProt P05364); assay: biochemical; set-up: species or system Enterobacter cloaca
Experimental: (§1) IC50 Determination for the Penem Inhibitor
(§2) β-Lactamase inhibitory activity of the penem inhibitors was determined spectrophotometrically as described by Bush et al., [Bush, K., Macalintal, C., Rasmussen, B. A., Lee, V. and Yang, Y. Antimicrobial Agents and Chemotherapy 1993, 37, 851]. Homogeneously purified class A β-lactamases TEM-1 from E. coli and Imi-1 from Enterobacter cloacae, class B enzyme CcrA from Bacteroides fragilis and class C enzyme AmpC from Enterobacter cloaca were employed in the assay. The enzyme concentrations for TEM-1, Imi-1, CcrA and AmpC were 4.3, 7.1, 1.2 and 2.1 nM, respectively. A wide range of inhibitor concentrations were prepared in 50 mM PO4, pH 7.0 to include the possible IC50 values. The substrate used to initiate the enzyme reaction was nitrocefin at 50 μg/ml in the same buffer as the inhibitor. Initially the enzyme and inhibitor (20 μl each) were preincubated for 10 minutes at 25° C. prior to the addition of 160 μl volume of nitrocefin. Initial rates of hydrolysis were monitored for 5 minutes at 495 nm using a Molecular Devices Spectra Max 250 with kinetic protocol of SoftMax Program. Readings from the Spectra Max 250 were exported and transferred to Microsoft Excel. The percent of inhibition of each inhibitor concentration was calculated based on the control enzyme activity. The inhibitor concentration that caused a 50% reduction in the enzymatic activity (IC50) was determined graphically.

class B enzyme CcrA = class B enzyme CcrA (Bacteroides fragilis, UniProt P25910); assay: IC50 determination, β-lactamase inhibition (nitrocefin, spectrophotometric); type: biochemical
Experimental: as §1, §2

[1] = target: class A β-lactamase Imi-1 (Enterobacter cloacae, UniProt Q46991); assay: as above; type: biochemical
Experimental: as §1, §2

[2] = target: class A β-lactamase TEM-1 (Escherichia coli, UniProt P62593); assay: as above; type: biochemical, E. coli; details: enzyme 4.3 nM; 10 minutes preincubation at 25° C.; nitrocefin 50 μg/ml; pH 7.0
Experimental: as §1, §2

[3] = test system: Clinical isolates that have been adapted to cause infection in mice; assay: In vivo antibacterial protection, 7 day survival of infected mice; set-up: species or system mice strain CD-1; details: Mus musculus, 168 h
Description: In Vivo Antibacterial Protection
Female mice strain CD-1, approximately 18-22 grams, were received from Charles River Laboratories and quarantined 7 days prior to use. In addition, mice may be rendered neutropenic using cytoxan.
Clinical isolates that have been adapted to cause infection in mice, are used in the experiment, including infections with strains of E. coli, K. pneumoniae, M. morganii, E. cloacae, S. marcescens, C. freundii, staphylococci, streptococci, P. aeruginosa and N. gonorrhoeae.
Mice are challenged by injecting 0.5 ml intraperitoneally or 0.05 ml intranasally of a predetermined bacterial inoculum suspended in broth, saline or hog gastric mucin (supplemented with dried bovine hemoglobin for N. gonorrhoeae). […] Antibacterial doses (dose concentration prepared by two fold serial dilutions of the antibiotic) are dissolved or suspended in 0.2% aqueous agar or methocel, phosphate buffered saline or an adjuvant are administered orally, subcutaneously or intravenously in the following manner: • a) Orally or subcutaneously: Dose volume of 0.5 ml administered ½ hr after infection. A second dose may be administered 3 hr. after infection for treatment of infections with more virulent organisms. • b) Intravenously: Dose volume of 0.2 ml, administered ½ hr. after infection. For the treatment of infections with more virulent organisms, more doses, up to 48 hr may be administered. (Intravenous dosing will not exceed 3 doses/24 hr period.) • c) Oral pretreatment: Under special circumstances, the pH of the stomach needs to be adjusted in order to increase the gastric stability of the antibiotic. For this purpose, 0.5 ml of phosphate buffered saline (pH7.8, 0.06M) (or specific approved adjuvant) is administered orally ½ hr after infection, followed 5 minutes later by 0.5 ml of antibiotic (also orally) contained in phosphate buffered saline (pH7.8, 0.06M). Animal Species
A detailed explanation as to the number of animals needed for the determination of in vivo efficacy follows: • A) Novel antibiotics are tested at 5 different dose levels with 5 mice per dose level at each of three routes of administration (oral, subcutaneous and intravenous). […] This would require 25 mice/route with 3 routes/antibiotic or 75 mice per novel compound tested. One to two novel antibiotics will be tested per experiment (75-150 mice) • B) The effectiveness of the new compound must be compared to that of a standard, or antibiotic of known effectiveness. Known or previously tested antibiotics are tested at 5 dose levels with 5 mice per dose level by a single route of administration, for a total of 25 mice/antibiotic. Usually 3-6 antibiotics will be tested per experiment. (75-150 mice). • C) Untreated controls—In each of the above tests, untreated animals are infected with 3 different concentrations of bacterial inoculum with 10 mice per concentration (30 mice total in each and every test). These untreated controls are used to determine and maintain the infection level between 10-100 LD50s as required for test to test comparison and validity. Determination of Protective Effects of Antibacterial Agents:
The protective effects of the antibacterial agent(s) are measured by the survival of the infected untreated as compared to the treated animals. […] A census of survivors is taken twice daily and at that time dead as well as moribund animals are removed. […] The test is performed three times on separate days to provide a statistically valid number of animals and to minimize variation in test results on a day to day and test to test basis.

[4] = enzyme 2.1 nM, 10 minutes preincubation at 25° C., nitrocefin 50 μg/ml, pH 7.0, read-out: IC50 (nM) Class C AmpC
[5] = enzyme 1.2 nM, 10 minutes preincubation at 25° C., nitrocefin 50 μg/ml, pH 7.0, read-out: IC50 (nM) Class B Ccr
[6] = enzyme 7.1 nM, 10 minutes preincubation at 25° C., nitrocefin 50 μg/ml, pH 7.0, read-out: IC50 (nM) Class A Imi
[7] = Ratio of Piperacillin vs. Inhibitor 4:1, read-out: ED50
[8] = Ratio of Piperacillin vs. Inhibitor not given, read-out: ED50

Chain of class A β-lactamase TEM-1 (P62593 24-286 limits assumed): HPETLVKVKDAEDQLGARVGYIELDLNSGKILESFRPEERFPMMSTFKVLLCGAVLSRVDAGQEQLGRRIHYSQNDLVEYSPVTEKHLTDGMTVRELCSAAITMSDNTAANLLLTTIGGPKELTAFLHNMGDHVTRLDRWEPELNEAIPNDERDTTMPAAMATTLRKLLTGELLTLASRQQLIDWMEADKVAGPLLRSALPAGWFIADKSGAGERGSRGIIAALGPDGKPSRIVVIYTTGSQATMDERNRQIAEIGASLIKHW
Chain of class C enzyme AmpC (P05364 21-381): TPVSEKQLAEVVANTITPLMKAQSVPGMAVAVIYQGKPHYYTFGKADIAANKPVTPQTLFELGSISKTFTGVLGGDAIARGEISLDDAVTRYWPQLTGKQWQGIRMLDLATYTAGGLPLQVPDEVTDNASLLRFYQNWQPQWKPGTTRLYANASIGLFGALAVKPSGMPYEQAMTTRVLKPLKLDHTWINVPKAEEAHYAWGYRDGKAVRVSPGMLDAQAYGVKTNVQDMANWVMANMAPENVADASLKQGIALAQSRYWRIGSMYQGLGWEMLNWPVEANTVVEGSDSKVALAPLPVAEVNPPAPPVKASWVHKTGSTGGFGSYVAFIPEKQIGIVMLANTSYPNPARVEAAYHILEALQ
Chain of class B enzyme CcrA (P25910 19-249): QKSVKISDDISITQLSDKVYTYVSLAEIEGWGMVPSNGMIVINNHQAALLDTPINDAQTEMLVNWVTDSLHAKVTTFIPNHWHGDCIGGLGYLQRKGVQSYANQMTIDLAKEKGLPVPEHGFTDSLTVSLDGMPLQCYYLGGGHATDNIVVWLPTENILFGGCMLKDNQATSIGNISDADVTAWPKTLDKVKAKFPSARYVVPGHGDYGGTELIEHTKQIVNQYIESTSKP
Chain of class A β-lactamase Imi-1 (Q46991 28-292): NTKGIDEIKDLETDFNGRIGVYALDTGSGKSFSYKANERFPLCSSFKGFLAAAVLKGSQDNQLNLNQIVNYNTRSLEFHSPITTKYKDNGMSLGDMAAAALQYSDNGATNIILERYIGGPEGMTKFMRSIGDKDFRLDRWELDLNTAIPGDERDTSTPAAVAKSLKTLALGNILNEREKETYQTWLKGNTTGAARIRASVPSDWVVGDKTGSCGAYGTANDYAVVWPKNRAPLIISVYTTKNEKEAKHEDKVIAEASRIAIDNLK

SMILES	IC50 (class C enzyme AmpC; [4])	IC50 (class B enzyme CcrA; [5])	IC50 [1, 6]	IC50 [2]	ED50 ([3]; Ratio of Piperacillin vs. Inhibitor 2:1, read-out: ED50)	ED50 [3, 7]	IC50 (class B enzyme CcrA)	IC50 [1]	IC50 (class C enzyme AmpC)	ED50 [3, 8]
CC(=O)N1CCc2sc(/C=C3/C(=O)N4C(C(=O)[O-])=CS[C@H]34)cc2C1.[Na+] (single isomer, unassigned) [Example 34, Sodium salt]	6.5 nM	99 nM	34 nM	4.2 nM	–	–	–	–	–	–
CN1CCn2cc(/C=C3/C(=O)N4C(C(=O)O)=CS[C@H]34)nc2C1 [Example 2, (5R),(6Z)-6-(7-Methyl-5,6,7,8-tetrahydroimidazo[1,2-a]pyrazin-2-ylmethylene)-7-oxo-4-thia-1-aza-bicyclo[3.2.0]hept-2-ene-2-carboxylic acid, sodium salt]	5.8 nM	120 nM	22 nM	4.4 nM	> 64 mg/kg	–	–	–	–	–
O=C(O)C1=CS[C@@H]2/C(=C\c3cn4c(n3)CNCC4)C(=O)N12 [Example 3, (5R),(6Z)-7-Oxo-6-(5,6,7,8-tetrahydroimidazo[1,2-a]pyrazin-2-ylmethylene)-4-thia-1-azabicyclo[3.2.0]hept-2-ene-2-carboxylic acid, sodium salt]	6.2 nM	–	–	5.4 nM	–	16 to 32 mg/kg	320 nM	28 nM	–	–
O=C(O)C1=CS[C@@H]2/C(=C\c3cn4c(n3)COCC4)C(=O)N12 [Example 7, (5R),(6Z)-6-(5,6-Dihydro-8H-imidazo[2,1-c][1,4]oxazin-2-ylmethylene)-7-oxo-4-thia-1-azabicyclo[3.2.0]hept-2-ene-2-carboxylic acid, sodium salt]	4.8 nM	66 nM	–	0.4 nM	–	22.8 mg/kg	–	7.8 nM	–	–
O=C(O)C1=CS[C@@H]2/C(=C\c3cc4n(n3)CCC4)C(=O)N12 [Example 8, (5R),(6Z)-6-(5,6-Dihydro-4H-pyrrolo[1,2-b]pyrazol-2-ylmethylene)-7-oxo-4-thia-1-azabicyclo[3.2.0]hept-2-ene-2-carboxylic acid, sodium salt]	1.5 nM	14 nM	50 nM	1.2 nM	–	–	–	–	–	–
O=C([O-])C1=CS[C@@H]2/C(=C\c3cc4n(n3)CCCC4)C(=O)N12.[Na+] [Example 9, (5R)(6Z)-7-Oxo-6-(4,5,6,7-tetrahydropyrazolo[1,5-a]pyridin-2-ylmethylene)-4-thia-1-azabicyclo[3.2.0]hept-2-ene-2-carboxylic acid, sodium salt]	–	62 nM	–	2.2 nM	–	31.3 mg/kg	–	90 nM	3.2 nM	–
CN1Cc2nc(/C=C3/C(=O)N4C(C(=O)O)=CS[C@H]34)cn2CC1=O [Example 10, (5R),(6Z)-6-(7-Methyl-6-oxo-5,6,7,8-tetrahydro-imidazo[1,2-a]pyrazin-2-ylmethylene)-7-oxo-4-thia-1-aza-bicyclo[3.2.0]hept-2-ene-2-carboxylic acid sodium salt]	3 nM	140 nM	65 nM	10 nM	–	–	–	–	–	–
O=C(O)C1=CS[C@@H]2/C(=C\c3cc4n(n3)CCOC4=O)C(=O)N12 [Example 14, (5R,6Z)-7-oxo-6-[(4-oxo-6,7-dihydro-4H-pyrazolo[5,1-c][1,4]oxazin-2-yl)methylene]-4-thia-1-azabicyclo[3.2.0]hept-2-ene-2-carboxylic Acid]	3.8 nM	26 nM	68 nM	2.5 nM	–	–	–	–	–	–
O=C(O)C1=CSC2C(=Cc3cc4c(s3)CCOC4)C(=O)N12 (centres unmarked) [Example 15, 6-(6,7-Dihydro-4H-thieno[3,2-c]pyran-2-ylmethylene)-7-oxo-4-thia-1-aza-bicyclo[3.2.0]hept-2-ene-2-carboxylic acid]	3.8 nM	14 nM	8.6 nM	1.2 nM	–	–	–	–	–	–
O=C(O)C1=CSC2C(=Cc3cc4c(s3)CCSC4)C(=O)N12 (centres unmarked) [Example 16, 6-(6,7-Dihydro-4H-thieno[3,2-c]thiopyran-2-ylmethylene)-7-oxo-4-thia-1-aza-bicyclo[3.2.0]hept-2-ene-2-carboxylic acid]	4.2 nM	12 nM	25 nM	3.1 nM	–	–	–	–	–	–
CCOC(=O)N1CCc2sc(C=C3C(=O)N4C(C(=O)O)=CSC34)cc2C1 (centres unmarked) [Example 18, 2-(2-Carboxy-7-oxo-4-thia-1-aza-bicyclo[3.2.0]hept-2-en-6-ylidenemethyl)-6,7-dihydro-4H-thieno[3,2-c]pyridine-5-carboxylic acid ethyl ester]	9.2 nM	120 nM	50 nM	2.8 nM	–	–	–	–	–	–
O=C(O)C1=CS[C@@H]2/C(=C\c3cn4c(n3)CN(Cc3ccccc3)CC4)C(=O)N12 [Example 20, (5R),(6Z)-6-(7-Benzyl-5,6,7,8-tetrahydroimidazo[1,2-a]pyrazin-2-ylmethylene)-7-oxo-4-thia-1-azabicyclo[3.2.0]hept-2-ene-2-carboxylic acid, sodium salt]	3.1 nM	18 nM	9.6 nM	1.4 nM	–	–	–	–	–	–
O=C(O)C1=CS[C@@H]2/C(=C\c3cc4c(s3)CCN(Cc3cccnc3)C4)C(=O)N12 [Example 21]	18 nM	280 nM	40 nM	9.8 nM	–	–	–	–	–	–
O=C([O-])C1=CS[C@@H]2/C(=C\c3cc4n(n3)CSCC4)C(=O)N12.[Na+] [Example 28, (5R)(6Z)-6-(4,5-Dihydro-6-thia-1,7a-diazainden-2-ylmethylene)-7-oxo-4-thia-1-azabicyclo[3.2.0]hept-2-ene-2-carboxylic acid, sodium salt]	–	–	–	–	–	–	–	–	–	31 mg/kg
O=C(O)C1=CS[C@@H]2/C(=C\c3cnc4n3CCSC4)C(=O)N12 [Example 30, (5R),(6Z)-6-(5,6-Dihydro-8-H-imidazo[2,1-c][1,4]thiazin-3-ylmethylene)-7-oxo-4-thia-1-azabicyclo[3.2.0]hept-2-ene-2-carboxylic acid]	2.5 nM	7.8 nM	2300 nM	2.9 nM	–	–	–	–	–	–
O=C([O-])C1=CS[C@@H]2/C(=C\c3cc4n(n3)CCS4)C(=O)N12.[Na+] [Example 32, (5R)(6Z)-6-(2,3-Dihydropyrazolo[5,1-b]thiazol-6-ylmethylene)-7-oxo-4-thia-1-azabicyclo[3.2.0]hept-2-ene-2-carboxylic acid, sodium salt]	–	–	–	–	–	–	–	–	–	46 mg/kg
